From PMC5532363, “Synergistic blending of high-valued heterocycles inhibits growth of Plasmodium falciparum in culture and P. berghei infection in mouse model” (Scientific Reports, 2017)
Like-named read-outs stand apart in the source and are kept apart here.

Assays:
[1] = system: P. falciparum 3D7 (Pf3D7), CQ sensitive; assay: SYBR Green I growth inhibition assay, asynchronous P. falciparum 3D7 culture; format: cell-based, Plasmodium falciparum; conditions: SYBR Green, mean of three experiments, NDR / No IC50 = no dose response
Excerpt: (§1) Antimalarial activity of all the listed Pht analogues was initially assessed on asynchronous cultures of P. falciparum 3D7 (Pf3D7) clone using the SYBR Green assay. […] The mean IC50 values are based on three separate experiments (Table 1).
(§2) The laboratory-adapted P. falciparum strains 3D7 (Africa; CQ sensitive) and W2 (Africa; CQ resistant), were acquired from Malaria Research and Reference Reagent Resource Center (MR4) (Manassas, VA, USA) and maintained with type O +ve erythrocytes suspended in continuous complete culture medium as described. Complete culture media consisted of 10.43 g/litre of RPMI 1640-HEPES supplemented with 10% (vol/vol) human AB serum, 92.6 mg/litre L-glutamine, 50 mg/liter hypoxanthine, 2 g/litre sodium bicarbonate (Sigma-Aldrich, St. Louis, MO). Incubation of cultures was at 37 °C and maintained in a low oxygen atmosphere (5% O2, 5% CO2, 90% N). The levels of parasitemia in the cultures were maintained at between 2 and 10%, with 5% hematocrit. Media was changed after every 24 hours and parasitemia monitored every 48 hours. Synchronous cultures were prepared by sorbitol lysis. Stock solutions of the Pht, Pht analogues, and DHA were prepared in absolute dimethyl sulfoxide (DMSO) while CQ was prepared in distilled water. The prepared drug stock solutions were used immediately or stored at −80 °C for not longer than one month before use. Stock solutions were further diluted in serum free RPMI 1640 media (stock solution solvent final conc. 0.05%) before performing a 2-fold serial dilution to achieve dose ranges of 0.2 µM to 100 µM (Pht and derivatives), 7.8 to 2,000 nM (CQ) and 0.17 to 87.5 nM (DHA). 25 μL of the drug diluents were aliquoted into 96 well plates and used immediately. Alternatively, the stock solutions were diluted in distilled water, 2-fold serial dilution performed on a 96 well plate and allowed to air dry in a laminar flow hood after which dried plates were stored at 4 °C until use. SYBR Green I assay technique with additional modification was used for drug susceptibility testing of the parasites. Parasite cultures of >1% parasitemia were diluted to 1% parasitemia and 2% hematocrit and 200 μL were transferred onto drug pre-dosed plates and incubated at 37 °C for 90 hours, [40]. Drug exposure was terminated by freezing the drug plates at −80 °C for 24 hours after which lysis buffer containing (per liter) 100 mM Tris-HCl, 10 mM EDTA, 0.016% Saponin, 1.6% triton X-100 and 20X SYBR Green I dye was added and the sample incubated for 2 hours in the dark. Relative fluorescence units (RFU) were read using the Perkin Elmer Wallac 1420 fluorescence plate reader, with excitation and emission wavelengths of 485 nm and 535 nm respectively. The readouts values were aligned with corresponding drug doses and analysis performed by Graph-pad Prism software. The drug concentrations (x value) were transformed using X = Log[X] and plotted against the counts (y values) and the data analysed by non-linear regression (sigmoid dose-response/variable slope equation) to yield the IC50.

CQ resistant PfW2 strain = assay: SYBR Green I growth inhibition assay, P. falciparum W2 culture; format: cell-based; conditions: Plasmodium falciparum
Excerpt: as §1
as §2, with “Drug exposure was terminated by freezing the drug plates at −80 °C for 24 hours after which lysis buffer containing (per liter) 100 mM Tris-HCl, 10 mM EDTA, 0.016% Saponin, 1.6% triton X-100 and 20X SYBR Green I dye was added and the sample incubated for 2 hours in the dark.” left out

P. falciparum 3D7 = assay: Fixed-ratio isobologram drug interaction assay with CQ/DHA, 3D7; format: cell-based, Plasmodium falciparum; conditions: Pf3D7
Method: A modified fixed-ratio isobologram method was used to assess interaction between CQ/DHA and Pht analogues. Briefly, a total of 5 solutions containing fixed-ratio mixtures of Pht derivatives with either CQ or DHA were prepared in the following ratios: 1:1, 2:1, 3:2, 2:3, and 1:4. The starting concentrations for ten 2 fold-serial dilutions across the microtiter plate were assigned so that the IC50 of each drug would be in the 5th serial dilution of the plate. Each drug was tested alone and at fixed ratios of its IC50. The assessment of drug interaction was based on the calculation of the fractional inhibitory concentration (FIC) of two drugs in the […]. FIC was calculated for each association by dividing the IC50 of the drug in the combination by the IC50 of the drug alone.

[2] = MTT cytotoxicity assay in U937 cells; format: cell-based; conditions: human; for selectivity ratio at 24 h: U937 cells (CC50) versus 3D7 parasites (IC50), read-out: selectivity index (SI); for CC50 at 24 h: U937 cells, MTT
Method: As a final step in the investigational pipeline, we determined the cytotoxic effect of the four active analogues (6a, 6h, 6m and 6u) in U937 cell lines by measuring 50% cytotoxic concentrations (CC50) and calculating selectivity indices (SIs) as a measure of toxicity in human cells.
Cytotoxicity of the 4 select Pht compounds on human cells was evaluated by assessing cell viability of the U937, a human acute monocyte leukemia cell lines by use of the MTT assay. U937 was acquired from American Type Culture Collection (ATCC, Rockville, MD) and maintained in RPMI 1640 medium supplemented with 10% fetal bovine serum, and Penicillin-streptomycin (1% v/v) (Gibco, UK) at 37 °C. Robust U937 cells at a concentration of 80,000 cells/ml were plated into 96-well plates and incubated for 24 hours. Six concentrations of the Pht compounds were added in a two-fold dilution from starting concentration of 50 to 1.56 µM in triplicate and incubated with the cells for 24 hours. This was followed by addition of 10 µL MTT solution (5 mg/mL) into each well, incubated for 4 hour at 37 °C followed by addition of 50 µL DMSO to dissolve the formazan precipitate according to manufacturer’s protocol. Aliquots were drawn from each well and color intensity was measured spectrophotometrically in an ELISA plate reader (Biotek, ELx800) at 540 nm. The cell viability ratio was calculated by the following formula: % cytotoxicity = [Mean OD of test cells] − [Mean OD of control cells]/[Mean OD of control cells] × 100. Viability counts were then plotted against corresponding drug concentrations to yield cytotoxicity (CC50) through non-linear regression (sigmoid dose-response/variable slope equation). Drug CC50 values were then used to define selectivity indices, which is a measure of drug safety in human relative to parasitic cells and was calculated as the ratio of the CC50 value determined on the U937 cells (cytotoxicity) and the IC50 value determined on parasite growth inhibition 3D7 (anti-plasmodial activity). In this study, we set SI > 2 as cut-off as an indicative of low drug cytotoxicity.

[3] = Pf3D7, asynchronous culture, read-out: IC50 (SE) µM
[4] = Plasmodium falciparum, 3D7, Pf3D7, asynchronous culture, read-out: IC50 (SE) µg/mL

Row | SMILES | IC50 ([1]; Pf3D7, asynchronous culture, listed as 6 h, read-out: IC50 (SE) µM) | IC50 [1, 3] | IC50 [1, 4] | IC50 (CQ resistant PfW2 strain) | interaction when combined with CQ and DHA (P. falciparum 3D7) | selectivity ratio at 24 h [2] | CC50 at 24 h [2] | IC50 ([1]; Pf3D7, asynchronous culture, listed as 6 u, read-out: IC50 (SE) µM)
1 | CC[C@@H](C)[C@H](c1nc2ccccc2n1Cc1cn(-c2ccc(F)cc2)nn1)N1C(=O)c2ccccc2C1=O [Compound 6h] | < 5.14 µM | 0.9 µM | 0.7 µg/mL | 1300 nM | synergistic activity | 41.2 ± 1.7 | 28800 ± 670 nM | 
2 | CC(C)C[C@H](c1nc2ccccc2n1Cc1c[nH]nn1)N1C(=O)c2ccccc2C1=O [Compound 6u] |  | 0.7 µM | 0.3 µg/mL | 900 nM | synergistic activity | 2.31 ± 0.76 | 2080 ± 1600 nM | < 5.14 µM
